# Measured values published in ChEMBL document CHEMBL6083295, “Natural Products Driven Medicinal Chemistry” (J Med Chem, 2024).
# Key:
# [1] = tested on: MDA-MB-231; test: Antitumor activity against human MDA-MB-231 cells xenografted in triple-negative breast cancer xenograft model assessed as tumor growth inhibition at 15 mg/kg relative to control; type: functional; conditions: read-out: TGI
# [2] = tested on: MDA-MB-231; test: Antitumor activity against human MDA-MB-231 cells xenografted in triple-negative breast cancer xenograft model assessed as tumor growth inhibition at 30 mg/kg relative to control; type: functional; conditions: read-out: TGI
# [3] = tested on: HCT-116; test: Antiproliferative activity against human HCT-116 cells
# [4] = tested on: Staphylococcus sp.; test: Antibacterial activity against Staphylococcus species; type: functional
# [5] = tested on: Acinetobacter; test: Antibacterial activity against Acinetobacter; type: functional
# [6] = tested on: Staphylococcus aureus; test: Potentiation of vancomycin-induced antibiofilm activity against Staphylococcus aureus assessed as disruption of preformed biofilm by measuring fold increase in vancomycin activity; type: functional
# [7] = tested on: Staphylococcus aureus; test: Potentiation of gentamicin-induced antibiofilm activity against Staphylococcus aureus assessed as disruption of preformed biofilm by measuring fold increase in gentamicin activity; type: functional
# [8] = tested on: B16; test: Cytotoxicity against mouse B16 cells; type: functional, cell-based
structure (smiles),measurement,setting,value
CC(C)C[C@@H](CO)N1CCc2c(oc3c2C(=O)C(=O)c2ccccc2-3)C1,inhibition in vivo at 15 mg/kg,[1],42.2%
same,inhibition in vivo at 30 mg/kg,[2],60.4%
COc1ccc2cc(NC(=O)C3=NO[C@H]4[C@H](O)C=C[C@@H](Cl)[C@@]4(O)C3)c(=O)oc2c1OC [TRICHODERMAMIDE B],IC50,[3],120 nM
C#CC[C@H](NC(=O)c1ccc(NC(=O)c2ccc(C#N)cc2)cc1)C(=O)Nc1ccc(C(=O)Nc2ccc(C(=O)Nc3ccc(C(=O)O)cc3)c(O)c2OC(C)C)cc1,MIC,[4],0.06 µg/mL
same,MIC,[5],0.06 µg/mL
CC(=O)[C@H](C)C[C@@H](C)C[C@H](C)C(=O)C1=C(O)/C(=C/c2ccccc2)NC1=O,fold change (FC),[6],31
same,fold change (FC),[7],115
COC[C@@H](OC)C(=O)O[C@H](CC[C@H](C)[C@H](C[C@@H]1OC(=O)C[C@@H](O)C/C=C/C(=O)[C@H](C)[C@H](OC)c2coc(n2)-c2coc(n2)-c2coc(n2)/C=C\C[C@H](OC)[C@H]1C)OC)[C@H](C)[C@H](OC(C)=O)[C@H](C)/C=C/N(C)C=O,IC50,[8],0.5 nM
